Data: US20160024083A1, “COMPOUNDS AND METHODS FOR TREATING CANCERS” (HEALTH RESEARCH, INC., priority 2013, published 2016)
Where two headings read alike, the source gives them in different places.

Tests used:
Type in all cases: cell-based
PC3 = test: Inhibition of growth / toxicity in non-target PC3 cells; conditions: Homo sapiens, PC-3
Description: (§1) This example provides a table (below) of the compounds of the present disclosure and their activity towards four different cell lines (i.e., CWR22R, HeLa, PC3, and MDA-MB-231). The IC50 for inhibition of growth is divided into 4 categories: A<1 μM, B 1-5 μM, C 5-20 μM, D>20 μM.
(§2) All compounds were tested for toxicity using 4 cells lines, target cells—CWR22R and non-target cells, Hela, PC3 and MDA-MB-231 (FIGS. 1A-F).

MDA-MB-231 = test: Inhibition of growth / toxicity in non-target MDA-MB-231 cells
Description: as §1, §2

CWR22R = test: cells
Description: FIG. 21. Toxicity of PLA1055 to CWR22R cells in vitro depending on time of incubation. PLA1055 was added to CWR22R in full range of concentrations for the periods of time shown on the right. After that drug containing media were changed for drug free and survival of cells was detected at 72 hours after start of treatment using Alamar Blue assay (Promega).
as §1, §2
LC50 data of in vitro 72 hours cytotoxicity assay are included in this table for comparison.
An in vitro experiment was run to detect the concentration of PLA1055 needed to kill all tumor cells in vitro (LC90) during different periods of time (30 minutes-72 hours, FIG. 21)).

Hela = test: Inhibition of growth / toxicity in non-target Hela cells
Description: as §1, §2

[1] = Homo sapiens, 22Rv1, CWR22R, read-out: IC50 for inhibition of growth
[2] = CWR22R, read-out: IC50 for inhibition of growth

| Compound | IC50 (PC3) [µM] | IC50 (MDA-MB-231; Homo sapiens) [µM] | IC50 (CWR22R; Homo sapiens, 22Rv1, read-out: IC50 for inhibition of growth, CWR22R) [µM] | IC50 (Hela; Homo sapiens, HeLa) [µM] | IC50 (CWR22R; [1]) [µM] | IC50 (CWR22R; [2]) [µM] | IC50 (MDA-MB-231) [µM] | IC50 (Hela; Hela) [µM] |
| --- | --- | --- | --- | --- | --- | --- | --- | --- |
| CCCn1c2ccccc2c2cc(Br)ccc21 [Compound 1-1, 3-Bromo-9-propyl-9H-carbazole] | > 20 | > 20 | 1 to 5 | > 20 |  |  |  |  |
| CC(=O)c1ccc2c(c1)c1ccccc1n2CCCF [Compound 1-2] | > 20 | > 20 |  | > 20 | < 1 |  |  |  |
| CCCn1c2ccccc2c2cc(-c3cccs3)ccc21 [Compound 2-1, 9-Propyl-3-thiophen-2-yl-9H-carbazole] | > 20 | > 20 |  | > 20 | < 1 |  |  |  |
| CCCn1c2ccccc2c2cc(-c3ccc(C)s3)ccc21 [Compound 2-2] | > 20 | > 20 |  | > 20 | > 20 |  |  |  |
| CCCn1c2ccccc2c2cc(-c3cnoc3)ccc21 [Compound 2-5] | > 20 | > 20 |  | > 20 | < 1 |  |  |  |
| CCn1c2ccccc2c2cc(-c3cccs3)ccc21 [Compound 2-6] |  | > 20 |  | > 20 | 1 to 5 |  |  |  |
| CCCn1c2ccccc2c2cc(-c3ncco3)ccc21 [Compound 4-1, 3-Oxazol-2-yl-9-propyl-9H-carbazole] | > 20 | > 20 |  | > 20 | 1 to 5 |  |  |  |
| CCCn1c2ccccc2c2cc(-c3nccs3)ccc21 [Compound 4-2] | > 20 | > 20 |  | > 20 | > 20 |  |  |  |
| CCn1c2ccccc2c2cc(-c3ccccn3)ccc21 [Compound 4-4] | > 20 | > 20 |  | > 20 | 5 to 20 |  |  |  |
| CCCn1c2ccccc2c2cc(-c3ccccn3)ccc21 [Compound 4-5] | > 20 | > 20 |  | > 20 | 1 to 5 |  |  |  |
| CCCn1c2ccc(C(C)=O)cc2c2c(F)cccc21 [Compound 5-1, 1-(5-Fluoro-9-propyl-9H-carbazol-3-yl)-ethanone] | > 20 | > 20 |  | > 20 | < 1 |  |  |  |
| CCCn1c2ccc(C(C)=O)cc2c2ccc(F)cc21 [Compound 5-2] | > 20 | > 20 |  | > 20 | 5 to 20 |  |  |  |
| CC(=O)c1ccc2c(c1)c1c(C(N)=O)cccc1n2CCCF [Compound 5-8] | > 20 | > 20 |  | > 20 | < 1 |  |  |  |
| CCCn1c2ccccc2c2cc(C(C)=O)cnc21 [Compound 5-10] | > 20 | > 20 |  | > 20 | < 1 |  |  |  |
| CCOC(=O)c1cnc2c(c1)c1ccccc1n2CCCF [Compound 5-11, 9-(3-fluoropropyl)-9H-pyrido[2,3-b]indole-3-carboxylic acid ethyl ester] | > 20 | > 20 |  | > 20 | 1 to 5 |  |  |  |
| CCCn1c2ccc(C(C)=O)cc2c2ncccc21 [Compound 5-13] | > 20 | > 20 |  | > 20 | 1 to 5 |  |  |  |
| CCCn1c2ccc(C(C)=O)cc2c2c(OC)cccc21 [Compound 6-1, 1-(5-Methoxy-9-propyl-9H-carbazol-3-yl)-ethanone] | > 20 | > 20 |  | > 20 | < 1 |  |  |  |
| CNC(=O)c1cccc2c1c1cc(C(C)=O)ccc1n2CCCF [Compound 6-4] | > 20 | > 20 |  | > 20 | 5 to 20 |  |  |  |
| NC(=O)c1cnc2c(c1)c1ccccc1n2CCCF [Compound 7-1, 9-(3-Fluoropropyl)-9H-pyrido[2,3-b]indole-3-carboxamide] | > 20 | > 20 |  | > 20 | 1 to 5 |  |  |  |
| CCCn1c2ccccc2c2cc(-c3nnco3)ccc21 [Compound 8-1, 3-[1,3,4]Oxadiazol-2-yl-9-propyl-9H-carbazole] | > 20 | > 20 |  | > 20 | < 1 |  |  |  |
| CCCn1c2ccccc2c2cc(-c3nncs3)ccc21 [Compound 8-3] | > 20 | > 20 |  | > 20 | > 20 |  |  |  |
| FCCCn1c2ccccc2c2cc(-c3nnco3)cnc21 [Compound 8-4] | > 20 | > 20 |  | > 20 | < 1 |  |  |  |

| Compound | IC50 (PC3) [µM] | IC50 (MDA-MB-231; Homo sapiens) [µM] | IC50 (CWR22R; Homo sapiens, 22Rv1, read-out: IC50 for inhibition of growth, CWR22R) [µM] | IC50 (Hela; Homo sapiens, HeLa) [µM] | IC50 (CWR22R; [1]) [µM] | IC50 (CWR22R; [2]) [µM] | IC50 (MDA-MB-231) [µM] | IC50 (Hela; Hela) [µM] |
| --- | --- | --- | --- | --- | --- | --- | --- | --- |
| FCCCn1c2ccccc2c2cc(-c3nnco3)ccc21 [Compound 9-1, 9-(3-Fluoropropyl)-3-[1,3,4]oxadiazol-2-yl-carbazole] | > 20 | > 20 |  | > 20 | < 1 |  |  |  |
| FCCCn1c2ccc(-c3nnco3)cc2c2ncccc21 [Compound 10-1, 5-(3-Fluoropropyl)-8-[1,3,4]oxadiazol-2-yl-5H-pyrido[3,2-b]indole] |  | > 20 |  | > 20 |  | > 20 |  |  |
| FCCCn1c2ccc(-c3nnco3)cc2c2ncccc21 [Compound 10-2] |  |  |  |  |  | 5 to 20 | > 20 | > 20 |
| FCCCn1c2ccccc2c2cc(-c3cnco3)ccc21 [Compound 11-1, 9-(3-Fluoropropyl)-3-oxazol-5-yl-9H-carbazole] | > 20 | > 20 |  | > 20 | < 1 |  |  |  |
| CCCn1c2ccccc2c2cc(-c3cnco3)ccc21 [Compound 11-2] | > 20 | > 20 |  | > 20 | < 1 |  |  |  |
| CCCn1c2ccccc2c2cc(-c3cocn3)ccc21 [Compound 12-1, 3-Oxazol-4-yl-9-propyl-9H-carbazole] | > 20 | > 20 |  | > 20 | > 20 |  |  |  |
| CCCn1c2ccccc2c2cc(-c3ccno3)ccc21 [Compound 13-1, 3-Isoxazol-5-yl-9-propyl-9H-carbazole] | > 20 | > 20 |  | > 20 | 1 to 5 |  |  |  |
| FCCCn1c2ccccc2c2cc(-c3ccno3)ccc21 [Compound 13-2] | > 20 | > 20 |  | > 20 | < 1 |  |  |  |
| FCCCn1c2ccccc2c2cc(-n3cncn3)ccc21 [Compound 14-1, 9-(3-Fluoropropyl)-3-[1,2,4]triazol-1-yl-9H-carbazole] | > 20 | > 20 |  | > 20 | < 1 |  |  |  |
| CCCn1c2ccccc2c2cc(C3=NCCO3)ccc21 [Compound 15-2] | > 20 | > 20 |  | > 20 | > 20 |  |  |  |
| CC(=O)c1cc2c3ccccc3n(CCCF)c2cn1 [Compound 17-1, 1-[9-(3-Fluoropropyl)-9H-beta-carbolin-3-yl]-ethanone] | > 20 | > 20 |  | > 20 | < 1 |  |  |  |
| CCCn1c2ccccc2c2cc(C(C)=O)ncc21 [Compound 17-3] | > 20 | > 20 |  | > 20 | 5 to 20 |  |  |  |
| CC(=O)c1ccc2c(c1)c1ccccc1n2CCC(F)F [Compound 18-2, 1-[9-(3,3-Difluoropropyl)-9H-carbazol-3-yl]-ethanone] | > 20 | > 20 |  | > 20 | < 1 |  |  |  |
| CCCn1c2ccc(C(C)=O)cc2c2c(C(N)=O)cccc21 [Compound 19-1, 6-Acetyl-9-propyl-9H-carbazole-4-carboxamide] | > 20 | > 20 |  | > 20 | 1 to 5 |  |  |  |
| N#Cc1ccc2c(c1)c1c(C(N)=O)cccc1n2CCCF [Compound 19-2] | > 20 | > 20 |  | > 20 | < 1 |  |  |  |
| CCCn1c2ccc(Br)cc2c2cc(C(C)=O)ccc21 [Compound 20-1, 1-(6-Bromo-9-propyl-9H-carbazol-3-yl)-ethanone] | > 20 | > 20 |  | > 20 | 5 to 20 |  |  |  |
| CCCn1c2ccc(Cl)cc2c2cc(C(C)=O)ccc21 [Compound 20-2] | > 20 | > 20 |  | > 20 | > 20 |  |  |  |
| CCCn1c2ccc(OC)cc2c2cc(C(C)=O)ccc21 [Compound 21-1, 1-(6-Methoxy-9-propyl-9H-carbazol-3-yl)-ethanone] | > 20 | > 20 |  | > 20 | 5 to 20 |  |  |  |
| CCCn1c2ccccc2c2cc(C#N)ccc21 [Compound 22-2] | > 20 | > 20 |  | > 20 | < 1 |  |  |  |
| CCCn1c2ccc(C(C)=O)cc2c2cc(C(N)=O)ccc21 [Compound 23-1, 6-Acetyl-9-propyl-9H-carbazole-3-carboxylic acid amide] | > 20 | 5 to 20 |  | > 20 | 5 to 20 |  |  |  |
| CCCn1c2ccc(C(C)=O)cc2c2c(C#N)cccc21 [Compound 25-1, 6-Acetyl-9-propyl-9H-carbazole-4-carbonitrile] | > 20 | > 20 |  | > 20 | 1 to 5 |  |  |  |
| N#Cc1cnc2c(c1)c1ccccc1n2CCCF [Compound 25-3] | > 20 | > 20 |  | > 20 | 1 to 5 |  |  |  |
